Laboratory results taken from patent US9290487B2, “Pharmaceutical composition for treating diabetes” (Ajinomoto Co., Inc., priority 2011, dated 2016).
Counter-ions that a name gives are not always drawn. Like-named read-outs stand apart in the source and are kept apart here.

Key:
PPAR-α = PPAR-α (Homo sapiens (Human), UniProt Q07869); experiment: Measurement of PPAR-α activity (GAL4 luciferase reporter assay in CV-1 cells); assay type: cell-based; settings: 100(A/B), B = compound in WO/2011/058154 at 100 μM, read-out: PPARα relative fold induction (%)
PPAR-α, sequence (Q07869 167-468): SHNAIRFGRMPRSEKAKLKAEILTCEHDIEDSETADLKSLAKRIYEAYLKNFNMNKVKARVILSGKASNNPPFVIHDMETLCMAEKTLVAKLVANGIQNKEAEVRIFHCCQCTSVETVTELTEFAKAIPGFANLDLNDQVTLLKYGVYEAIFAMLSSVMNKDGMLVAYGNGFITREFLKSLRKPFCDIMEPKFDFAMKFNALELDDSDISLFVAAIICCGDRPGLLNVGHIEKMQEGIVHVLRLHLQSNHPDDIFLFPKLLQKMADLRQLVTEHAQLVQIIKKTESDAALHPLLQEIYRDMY
Experimental: The PPAR-α activity was measured according to the published article (THE JOURNAL OF BIOLOGICAL CHEMISTRY Vol. 270, No. 22, 12953-12956, 1995).
Plasmids used for the PPAR-α activity measurement were constructed as follows. A luciferase expression plasmid (UASx5-TK-Luc) used was obtained by introducing a sequence, in which five yeast GAL4-binding sequences are linked in tandem, upstream of a thymidine kinase promoter of pTAL-Luc (Takara Bio Inc., 6252-1). A PPAR-α receptor expression plasmid (hGR-GAL4-hPPARα) used was obtained by introducing a human GR N-terminal region (1-76 aa), a yeast GAL4 DNA-binding region (1-147 aa), and a PPARα ligand-binding region (167-468 aa) between a Not I site and a Sal I site of pExchange-1 Core Vector (Invitrogen Corporation, 211176).
A reporter assay was conducted by the following method using Cercopithecus aethiops kidney-derived CV-1 cells. The CV-1 cells were seeded in a 96-well plate (Thermo Fisher Scientific Inc., 4938) at 2×10^4 cells/well using a 10% FBS-containing DMEM (Nacalai Tesque, Inc., 0845874) medium. After culturing under conditions of 37° C. and 5% CO2 for 2 hours, the plasmids were transfected. Lipofectamine LTX (Invitrogen Corporation, 15338-100) was used for the transfection according to the attached manual. The plasmid solution was prepared by adding a mixture solution of the luciferase expression plasmid and the PPAR-α receptor expression plasmid to OPTI-MEM I (Invitrogen Corporation, 11058-021). After the transfection was conducted, the test compound was added, and cultured at 37° C. in the presence of 5% CO2 for 18 to 20 hours. After the culturing was completed, the luciferase activity was measured with Luminescensor JNR (ATTO) using Bright-Glo (Promega Corporation, E2620).
The fold induction of PPAR-α by the test compounds was calculated by the following method. For the compounds of Examples 1, 4, 5, 7, and 9, PPAR-α relative fold induction (%) was defined as 100 (A/B), where A represents the maximum value of PPAR-α activities with the test compound at 0.3 μM, 1 μM, 3 μM, 10 μM, 30 μM, and 100 μM, and B represents the PPAR-α activity with the compound in WO/2011/058154 at 100 μM. For the compounds of Examples 11, 15, 19, 22, 26, and 32, PPAR-α relative fold induction (%) was defined as 100 (A/B), where A represents the maximum value of PPAR-α activities with the test compound at 3 μM, 10 μM, 30 μM, and 100 μM, and B represents the PPAR-α activity with the compound in WO/2011/058154 at 100 μM.

[1] = target: human GYS1 (glycogen synthase) (Homo sapiens (Human), UniProt P13807); experiment: Measurement of glycogen synthase activity (coupled pyruvate kinase/lactate dehydrogenase assay, absorbance at 340 nm); assay type: biochemical; settings: concentration inducing relative activity of 50% (100% = Ex. 1 of WO/2011/058154 at 10 μM)
human GYS1 (glycogen synthase), sequence (P13807 whole entry): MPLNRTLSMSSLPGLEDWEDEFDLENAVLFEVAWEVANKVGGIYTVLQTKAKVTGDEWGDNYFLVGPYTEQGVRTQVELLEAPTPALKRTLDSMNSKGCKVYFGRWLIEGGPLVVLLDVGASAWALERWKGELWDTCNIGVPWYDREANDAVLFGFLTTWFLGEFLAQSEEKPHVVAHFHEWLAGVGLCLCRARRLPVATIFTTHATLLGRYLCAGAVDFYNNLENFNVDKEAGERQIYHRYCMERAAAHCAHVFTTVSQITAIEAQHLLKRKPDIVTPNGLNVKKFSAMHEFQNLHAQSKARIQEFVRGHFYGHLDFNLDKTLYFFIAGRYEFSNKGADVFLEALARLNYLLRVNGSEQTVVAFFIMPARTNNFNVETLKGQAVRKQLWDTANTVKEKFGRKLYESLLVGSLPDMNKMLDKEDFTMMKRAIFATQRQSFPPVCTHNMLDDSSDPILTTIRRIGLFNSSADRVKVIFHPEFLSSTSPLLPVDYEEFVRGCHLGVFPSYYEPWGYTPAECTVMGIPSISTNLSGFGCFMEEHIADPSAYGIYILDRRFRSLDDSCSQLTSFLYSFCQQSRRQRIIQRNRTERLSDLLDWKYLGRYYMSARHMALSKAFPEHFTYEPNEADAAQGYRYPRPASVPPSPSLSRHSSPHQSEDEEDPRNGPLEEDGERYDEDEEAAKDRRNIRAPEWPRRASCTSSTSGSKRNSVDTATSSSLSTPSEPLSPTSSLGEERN
Experimental: A human GYS1 expression plasmid (pCDNA3.1(+)-hGYS1) was constructed by the following method. Using a human skeletal muscle cDNA of Human MTC Panel I (Takara Bio Inc., 636742) as a template, a human GYS1 gene was amplified by a PCR method using cloning primers (Forward Primer: ATGCCTTTAAACCGCAC (SEQ ID NO: 1), Reverse Primer: TTAGTTACGCTCCTCGC (SEQ ID NO: 2)). Using the amplified human GYS1 sequence as a template, a restriction enzyme sequence was added by a PCR method using sub-cloning primers (Forward Primer: […] (SEQ ID NO: 3), Reverse Primer: […] (SEQ ID NO: 4)). Then, the human GYS1 gene was introduced between a Xho I site and a Xba I site of pCDNA3.1(+) (Invitrogen Corporation, V790-20).
Glycogen synthase was prepared by the following method according to the published article (THE JOURNAL OF BIOLOGICAL CHEMISTRY Vol. 269, No. 41, 25534-25542, 1994). Human kidney-derived HEK293T cells were seeded in a dish (Thermo Fisher Scientific Inc., 168381) using a 10% FBS-containing DMEM (Nacalai Tesque, Inc., 0845874) medium, and cultured overnight. Then, using Lipofectamine LTX (Invitrogen Corporation, 15338-100), the human GYS1 expression vector was transfected according to the attached manual. After culturing under conditions of 37° C. and 5% CO2 for 2 days, the resultant was dissolved in a lysis buffer (50 mM Tris-HCl (pH 8.0), 10 mM EDTA, 2 mM EGTA, 100 mM NaF, 1 mM PMSF, 1 mM DTT, 1× Complete (Roche Diagnostics K. K., 1873580)), homogenized, and then centrifuged at 16000×g at 4° C. for 15 minutes. To the precipitated fraction, a lysis buffer was added. Re-dissolved fractions were used as glycogen synthase for evaluation.
The glycogen synthase activity was measured by the following method. To a polystyrene 96-well plate, a solution containing 30 mM glycylglycine (pH 7.3), 40 mM KCl, 20 mM MgCl2, 9.2% DMSO containing one of the test compounds at various concentrations, and 10 mM glucose-6-phosphate (Sigma-Aldrich Corporation, G7879) was added by 12 μL/well.
Next, a substrate solution containing 30 mM glycylglycine (pH 7.3), 4.3 mg/mL of glycogen (Sigma-Aldrich Corporation, G8876), 21.6 mM UDP-glucose (Sigma-Aldrich Corporation, U4625), 21.6 mM phosphoenolpyruvic acid (Sigma-Aldrich Corporation, P0564), and 4.05 mM NADH (Sigma-Aldrich Corporation, N8129) was added by 18 μL/well.
Further, an enzyme solution containing 50 mM Tris-HCl (pH 8.0), 27 mM DTT (Nacalai Tesque, Inc., 14128-04), 0.2 mg/mL of bovine serum albumin, 0.17 mg/mL of the glycogen synthase, 1.5 μL of a pyruvate kinase/lactate dehydrogenase solution (Sigma-Aldrich Corporation, P0294) was added by 18 μL/well to prepare a reaction solution. After the reaction solution was incubated (at 30° C. for 25 minutes for Examples 1 to 10, at 37° C. for 20 minutes for Examples 11 to 75), the absorbance at 340 nm was measured using Benchmark Plus (Bio-Rad Laboratories, Inc.).
The activities of the test compounds were calculated by the following method. The change in the absorbance (ΔA340) was calculated by subtracting the absorbance at 340 nm of the reaction solution containing the compound and DMSO from the absorbance at 340 nm of a reaction solution not containing the compound but containing only DMSO. The ΔA340 of the reaction solution containing the compound of Example 1 in WO/2011/058154 at the final concentration of 10 μM was taken as 100% to calculate the relative activity (%) of the test compounds at various concentrations. EC50 representing the concentration of the compound which induces an increase in the relative activity to 50% was calculated using XLfit (idbs).

[2] = A = maximum activity at 0.3, 1, 3, 10, 30 and 100 μM
[3] = incubation at 30° C. for 25 minutes (Examples 1 to 10)
[4] = A = maximum activity at 3, 10, 30 and 100 μM
[5] = incubation at 37° C. for 20 minutes (Examples 11 to 75)
[6] = test concentrations not stated for these examples

Row | Compound | Emax (PPAR-α; [2]) | EC50 [1, 3] | Emax (PPAR-α; [4]) | EC50 [1, 5] | Emax (PPAR-α; [6])
1 | O=C(O)[C@@H]1CCCN1C(=O)c1cccc(COc2ccc(-c3cc(F)cc4c3OCC4)cc2)c1 [compound of Ex. 1, 1-(3-{[4-(5-fluoro-2,3-dihydro-1-benzofuran-7-yl)phenoxy]methyl}benzoyl)-L-proline] | 10% | 0.26 µM | – | – | –
2 | O=C(O)[C@@H]1CCCN1C(=O)c1cccc(COc2ccc(-c3cccc4c3OCO4)cc2)c1 [compound of Ex. 4, 1-(3-{[4-(1,3-benzodioxol-4-yl)phenoxy]methyl}benzoyl)-L-proline] | 17% | 0.25 µM | – | – | –
3 | O=C(O)[C@@H]1CCCN1C(=O)c1cccc(COc2ccc(-c3cccc4c3OCC4)cc2)c1 [compound of Ex. 5] | 10% | 0.5 µM | – | – | –
4 | O=C(O)[C@@H]1CCCN1C(=O)c1cccc(COc2ccc(-c3cccc4ccoc34)cc2)c1 [compound of Ex. 7] | 17% | 0.26 µM | – | – | –
5 | O=C(O)[C@@H]1CCCN1C(=O)c1cccc(COc2ccc(-c3cccc4c3OCC=C4)cc2)c1 [compound of Ex. 9] | 11% | 0.32 µM | – | – | –
6 | O=C(O)[C@@H]1CCCN1C(=O)c1cccc(COc2ccc(-c3cc(F)cc4c3OCC=C4)cc2)c1 [compound of Ex. 11] | – | – | 18% | – | –
7 | O=C(O)[C@@H]1CCCN1C(=O)c1cccc(COc2ccc(-c3cc(F)c(F)c4ccoc34)cc2)c1 [compound of Ex. 15, 1-(3-{[4-(4,5-difluoro-1-benzofuran-7-yl)phenoxy]methyl}benzoyl)-L-proline] | – | – | 20% | 0.022 µM | –
8 | O=C(O)[C@@H]1CCCN1C(=O)c1cccc(COc2ccc(-c3cc(F)c(F)c4c3OCC4)cc2)c1 [compound of Ex. 19, 1-(3-{[4-(4,5-difluoro-2,3-dihydro-1-benzofuran-7-yl)phenoxy]methyl}benzoyl)-L-proline] | – | – | 12% | 0.031 µM | –
9 | CC1(C)Cc2cc(F)cc(-c3ccc(OCc4cccc(C(=O)N5CCC[C@H]5C(=O)O)c4)cc3)c2O1 [compound of Ex. 22, 1-(3-{[4-(5-fluoro-2,2-dimethyl-2,3-dihydro-1-benzofuran-7-yl)phenoxy]methyl}benzoyl)-L-proline] | – | – | 15% | 0.18 µM | –
10 | O=C(O)[C@@H]1CCCN1C(=O)c1cccc(COc2ccc(-c3cccc4[nH]ccc34)cc2)c1 [compound of Ex. 26, 1-(3-{[4-(1H-indol-4-yl)phenoxy]methyl}benzoyl)-L-proline] | – | – | 13% | 0.16 µM | –
11 | O=C1COc2c(cccc2-c2ccc(OCc3cccc(C(=O)N4CCC[C@H]4C(=O)O)c3)cc2)N1 [compound of Ex. 32, 1-(3-{[4-(3-oxo-3,4-dihydro-2H-1,4-benzoxazin-8-yl)phenoxy]methyl}benzoyl)-L-proline] | – | – | 3% | 0.75 µM | –

Next, values leading:

Row | Emax (PPAR-α; [2]) | EC50 [1, 3] | Emax (PPAR-α; [4]) | EC50 [1, 5] | Emax (PPAR-α; [6]) | Compound
12 | – | – | – | 0.11 µM | 10% | O=C(O)[C@@H]1CCCN1C(=O)c1cccc(COc2ccc(-c3cc(F)c(F)cc3S)cc2)c1 [compound of Ex. 40, 1-(3-{[(4′,5′-difluoro-2′mercaptobiphenyl-4-yl)oxy]methyl}benzoyl)-L-proline]
13 | – | – | – | 0.054 µM | 13% | N#CCNc1cc(-c2ccc(OCc3cccc(C(=O)N4CCC[C@H]4C(=O)O)c3)cc2)cc(F)c1F [compound of Ex. 42, 1-{3-[({3′-[(cyanomethyl)amino]-4′,5′-difluorobiphenyl-4-yl}oxy)methyl]benzoyl}-L-proline trifluoroacetic acid salt]
14 | – | – | – | 0.07 µM | 11% | O=Cc1cc(F)c(F)cc1-c1ccc(OCc2cccc(C(=O)N3CCC[C@H]3C(=O)O)c2)cc1 [compound of Ex. 43, 1-(3-{[(4′,5′-difluoro-2′-formylbiphenyl-4-yl)oxy]methyl}benzoyl)-L-proline]
15 | – | – | – | 0.81 µM | 10% | COC(=O)c1cc(F)c(F)cc1-c1ccc(OCc2cccc(C(=O)N3CCC[C@H]3C(=O)O)c2)cc1 [compound of Ex. 44, 1-[3-({[4′,5′-difluoro-2′-(methoxycarbonyl)biphenyl-4-yl]oxy}methyl)benzoyl]-L-proline]
16 | – | – | – | 0.22 µM | 17% | CC(=O)COc1cc(-c2ccc(OCc3cccc(C(=O)N4CCC[C@H]4C(=O)O)c3)cc2)cc(F)c1F [compound of Ex. 49, 1-[3-({[3′,4′-difluoro-5′-(2-oxopropoxy)biphenyl-4-yl]oxy}methyl)benzoyl]-L-proline]
17 | – | – | – | 0.2 µM | – | COCc1cc2c(F)c(F)cc(-c3ccc(OCc4cccc(C(=O)N5CCC[C@H]5C(=O)O)c4)cc3)c2s1 [compound of Ex. 74, 1-[3-({4-[4,5-difluoro-2-(methoxymethyl)-1-benzothien-7-yl]phenoxy}methyl)benzoyl]-L-proline]
